According to publication PMC9920567, “Discovery of Bis-Imidazoline Derivatives as New CXCR4 Ligands” (Molecules, 2023):
Entries after “also recorded” stand apart in the source; their conditions may differ. Like-named read-outs stand apart in the source and are kept apart here.

What was measured:
CXCR4 [1] = target: T1, CXCR4 (Homo sapiens, UniProt P61073); assay: HTRF dilution series assay on CXCR4 (displacement of red-CXCL12); format: binding; conditions: for IC50: HEK293 ST-CXCR4 cells, red-CXCL12 20 nM, 2 h 16 °C, one-site competitive model, read-out: HTRF CXCR4-SDF1 IC50; for inhibition of HTRF at high concentrations: dilution series
T1 sequence (P61073 whole entry): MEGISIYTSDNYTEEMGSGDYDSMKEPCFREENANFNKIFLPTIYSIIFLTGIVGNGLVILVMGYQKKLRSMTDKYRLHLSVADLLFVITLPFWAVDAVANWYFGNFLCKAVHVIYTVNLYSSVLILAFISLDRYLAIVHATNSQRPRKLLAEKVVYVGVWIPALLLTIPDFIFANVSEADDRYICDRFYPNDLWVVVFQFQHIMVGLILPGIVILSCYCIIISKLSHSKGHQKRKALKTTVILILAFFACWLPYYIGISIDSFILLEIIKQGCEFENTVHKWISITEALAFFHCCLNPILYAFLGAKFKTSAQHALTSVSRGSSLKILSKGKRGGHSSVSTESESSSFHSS
Method: To obtain information on the structural requirements necessary for the interaction with CXCR4, we performed dilution series experiments (see Section 3.4.) by varying the concentrations of bis-imidazoline compounds in the HTRF assay used for the screening campaign (Table 1 and Figure 1A).
A three-fold serial dilution in DMSO was performed for each compound. Each concentration was tested in duplicate. For these experiments, Tag-lite CXCR4 and Tag-lite CXCR7 cell lines (5000 cells per well) were used. […] The IC50 values were determined with the Prism Software version 9 (Graph-Pad Software, San Diego, USA) using a one-site competitive binding model.
Data points are means ± SEM for three independent experiments.

CXCR4 [2] = target: T1, CXCR4; assay: HTRF Tag-lite primary screening: red-CXCL12 binding to HEK293 cells expressing ST-CXCR4; conditions: single dose 6.6 µg/mL (compound final concentration in µM in brackets), HTRF ratio of compound divided by that of AMD3100 15 µM, 20 nM red-CXCL12, hit < 1.3
Text: As a starting point of this study, we set up a high-throughput screening of 6851 compounds available at the time from the CERMN (Centre d’Etude et de Recherche sur le Médicament de Normandie) chemical library for their ability to interact with CXCR4 (see Section 3.3 for details). We applied a homogeneous cell-based binding assay using Homogeneous Time-Resolved Fluorescence resonance energy transfer (HTRF) Tag-lite technology. […] We investigated the capacity of the compounds to inhibit energy transfer between the Lumi4-Tb donor and acceptor red-CXCL12, which results in a decrease in the HTRF signal (i.e., the ratio between the acceptor and donor fluorescence signals at 665 and 620 nm, respectively). […] Each 384-well plate was analyzed independently. First, using negative and positive controls, the value of the Z′ factor [52] was determined. […]
All compounds are in DMSO at a concentration of 3.3 mg/mL (average concentration of 9.85 ± 3.7 mM). […] After a 2 h incubation at 16 °C, the fluorescence emission was measured at 620 nm and 665 nm using an excitation wavelength at 343 nm on a Safire2 (Tecan, Männedorf, Switzerland) microplate reader. The HTRF ratio was defined as following: Ratio = (Fluorescence intensity at 665 nm/Fluorescence intensity at 620 nm) × 10^4. […]

[3] = tested on: CXCR4-using HIV-1 strains; format: cell-based
endogenous CXCR4 = endogenous CXCR4 (Homo sapiens, UniProt P61073); assay: Displacement of 125I-labeled CXCL12 binding in blood mononuclear cells; conditions: blood mononuclear cells from a healthy donor, data not shown
Chain of endogenous CXCR4 (P61073 whole entry): as above

HIV-1 X4-28 Env = assay: microbe, parasite or virus in culture; format: cell-based; conditions: Human immunodeficiency virus 1, 48 h, read-out: extrapolated IC50, infection with X4-28 Env
HIV-1 NL4-3 Env = assay: microbe, parasite or virus in culture; format: cell-based; conditions: Human immunodeficiency virus 1, NL43, 48 h, read-out: extrapolated IC50, infection with NL4-3 Env
[4] = primary CD4+ T lymphocytes, NL4-3 and X4-28 Envs

| Compound | IC50 (CXCR4 [1]) | anti-HIV-1 activity [3, 4] | inhibition of HTRF at high concentrations (CXCR4 [1]) | also measured |
| --- | --- | --- | --- | --- |
| C(CCCNC1=NCCN1)CCNC1=NCCN1 [mr20345] | 40900 ± 23000 nM | – | – | HTRF CXCR4-SDF1 Relative HTRF Ratio (CXCR4 [2]): 2.78 (13.0) |
| c1cc(CN2CCCNCCNCCCNCC2)ccc1CN1CCCNCCNCCCNCC1 [AMD3100, reference compound] | – | – | – | anti-HIV-1 activity [3]: by far the most potent antiviral activity of all tested molecules |
| C(CCCCCNC1=NCCN1)CCCCNC1=NCCN1 [mr20349] | 470 ± 360 nM | observed | fully inhibited HTRF | displacement of 125I-labeled CXCL12 binding (endogenous CXCR4): confirmed; IC50 (HIV-1 X4-28 Env): 1100 nM; IC50 (HIV-1 NL4-3 Env): 30000 nM |
| C(CCCNC1=NCCN1)CCCNC1=NCCN1 [mr20346] | 1850 ± 930 nM | – | – | HTRF CXCR4-SDF1 Relative HTRF Ratio (CXCR4 [2]): 1.87 (12.6) |
| C(CCCCCCNC1=NCCN1)CCCCCNC1=NCCN1 [mr20350] | – | observed; also recorded: strongest anti-HIV-1 activity | fully inhibited HTRF | IC50 (HIV-1 X4-28 Env): 720 nM; IC50 (HIV-1 NL4-3 Env): 2600 nM |
| C(CCCCNC1=NCCN1)CCCCNC1=NCCN1 [mr20348] | 6620 ± 4310 nM | – | – | – |
| C(CCCCNC1=NCCN1)CCCNC1=NCCN1 [mr20347] | 350 ± 90 nM | not and no effect | fully inhibited HTRF | – |
| C(CCCCCNC1=NCCN1)CCCCCNC1=NCCN1 [mr34200] | 15500 nM | – | – | – |
